What was measured:
[1] = Cytotoxicity assay in MT-2 cells; assay type: cell-based; details: human, uninfected MT-2 cells
Experimental: (§1) For the antiviral assay utilizing MT-2 and MT-4 cells, 50 μl of a 2× test concentration of 5-fold serially diluted compound in culture medium with 10% FBS was added to each well of a 96-well plate (9 concentrations) in triplicate. MT-2 and MT-4 cells were infected with HIV-1 IIIb at a multiplicity of infection (MOI) of 0.01 for 3 h. Fifty microliters of infected cell suspension in culture medium with 10% FBS (∼1.5 × 10^4 cells) then was added to each well containing 50 μl of diluted compound. The plates were then incubated at 37°C for 5 days. After 5 days of incubation, 100 μl of CellTiter-Glo reagent (Promega Biosciences, Inc., Madison, WI) was added to each well containing MT-2 or MT-4 cells. Cell lysis was carried out by incubation at room temperature for 10 min and chemiluminescence was read. For compound cytotoxicity assessment, the protocol was identical except that uninfected cells were used and compounds were serially diluted 3-fold.

HIV-1 IIIb [2] = assay: Antiviral assay in MT-4 cells; assay type: cell-based; details: Human immunodeficiency virus 1, MT4, 120 h, 5 days
Experimental: as §1

[3] = Cytotoxicity assay in MT-4 cells; assay type: cell-based; details: human, uninfected MT-4 cells
Experimental: as §1

[4] = system: HRV (mixture of HRV1A, HRV14, HRV16); assay: microbe, parasite or virus in culture; assay type: cell-based; details: Human rhinovirus sp., H1-HeLa
RSV strain A2 = assay: microbe, parasite or virus in culture; assay type: cell-based, respiratory syncytial virus; details: human respiratory syncytial virus, HEp-2
HIV-1 IIIb [5] = system: HIV-1 IIIb
Experimental: Each compound series was prepared several times independently in quadruplicate to capture the variations in Hill slope associated with preparation of compound serial dilutions. The assay was performed in a 384-well format. MT-4 cells were infected in bulk at the same MOI as that described above, and the plates were developed with CellTiter-Glo reagent 5 days postinfection.

in vitro [6] = details: human, 6 days
Excerpt: Freshly isolated human peripheral blood mononuclear cells (PBMCs) were obtained from healthy volunteers (supplied by AllCells, Inc., Alameda, CA). Blood donors were negative for HIV-1, hepatitis B, and hepatitis C viral infections. CD4^+ T lymphocytes were isolated by negative selection using a magnetically labeled antibody cocktail ([sequence] Technologies Inc., Vancouver, Canada) and cultured in RPMI cell culture media (Life Technologies, Grand Island, NY) supplemented with 10% FBS. CD4^+ T cells were activated for 48 h at 37°C by addition of 1 μg/ml phytohemagglutinin (PHA; Sigma, St. Louis, MO) and 5 ng/ml interleukin-2 (IL-2; Roche Diagnostics, Indianapolis, IN). […] Human PBMCs were used for cytotoxicity assays after culturing for 48 h in either complete RPMI medium alone (resting conditions) or RPMI containing 1 μg/ml PHA and 5 ng/ml IL-2 (activated conditions).

in vitro [7] = details: human, CC50 in Primary Human Hepatocytes
[8] = system: organic cation transporter 2 (OCT2); details: read-out: IC50 inhibition of organic cation transporter 2 (OCT2); cited from earlier work
[9] = via inhibition of OCT2 in proximal tubule; cited from earlier work
[10] = Cytotoxicity in AD38 cells; details: human
HCV 2a Replicon = assay: Anti-HCV activity, HCV 2a replicon; details: Hepatitis C virus, Huh-7
HBV Production = assay: microbe, parasite or virus in culture; details: Hepatitis B virus
HIV-1 IIIb [11] = assay: HIV breakthrough selection in MT-2 cells; details: MT-2, HIV-1 IIIb; FTC 4× EC95, EVG 5× EC95, BIC and DTG 2.5× and 5× EC95; up to day 32
HIV-1 BaL = assay: Antiviral assay in primary CD4+ T lymphocytes (p24 ELISA); details: Human immunodeficiency virus 1, BAL
Excerpt: Freshly isolated human peripheral blood mononuclear cells (PBMCs) were obtained from healthy volunteers (supplied by AllCells, Inc., Alameda, CA). Blood donors were negative for HIV-1, hepatitis B, and hepatitis C viral infections. CD4^+ T lymphocytes were isolated by negative selection using a magnetically labeled antibody cocktail ([sequence] Technologies Inc., Vancouver, Canada) and cultured in RPMI cell culture media (Life Technologies, Grand Island, NY) supplemented with 10% FBS. CD4^+ T cells were activated for 48 h at 37°C by addition of 1 μg/ml phytohemagglutinin (PHA; Sigma, St. Louis, MO) and 5 ng/ml interleukin-2 (IL-2; Roche Diagnostics, Indianapolis, IN).
A 3-fold serial dilution of test compounds in RPMI medium was added to triplicate wells and incubated at 37°C for 5 days. Human monocytes were seeded on 96-well plates at a density of 3 × 10^5 cells per well, differentiated into adherent macrophages, and then infected with HIV-1 BaL virus in 50 μl RPMI for 3 h at 37°C. […] The supernatants derived from the CD4^+ T-cell and macrophage cultures were harvested 6 and 12 days postinfection, respectively, and the amount of HIV present was quantified by p24 enzyme-linked immunosorbent assay (ELISA) (PerkinElmer, Waltham, MA).

[12] = system: HIV-1 patient-derived isolates with INSTI resistance mutations; assay: PhenoSense IN assay, 47 patient-derived isolates; assay type: cell-based
Experimental: Forty-seven resistance test vectors containing patient-derived IN coding regions were constructed using standard Monogram Biosciences protocols. […] The fold change from the NL4-3 wild-type reference vector values was determined. Statistical significance was determined using the Student two-tailed t test.

C[C@@H]1CCO[C@H]2Cn3cc(C(=O)NCc4ccc(F)cc4F)c(=O)c(O)c3C(=O)N12 [DTG, Dolutegravir]
CC50 at 5 days [1]: 5.35 µM | EC50 (HIV-1 IIIb [2]): 0.0015 ± 0.0003 µM | CC50 at 5 days [3]: 14.7 µM | EC50 [4]: > 50 µM | EC50 (RSV strain A2): > 50 µM | PAEC95 (protein binding-adjusted EC95) (HIV-1 IIIb [5]; EC95 in MT-4 with human serum shift): 0.204 µM | EC95 (HIV-1 IIIb [5]; MT-4 cells, calculated using Hill slope): 0.0074 µM | CC50 (in vitro [6]; CC50, Activated PBMCs (IL-2/PHA 2 days)): 23.9 µM | CC50 (in vitro [6]; CC50, Resting PBMCs): 30.6 µM | CC50 (in vitro [7]; Donor 1): > 100 µM | CC50 (in vitro [7]; Donor 2): > 100 µM | IC50 [8]: 1.93 µM | increase of human serum creatinine levels [9]: about 10% | CC50 at 5 days [10]: > 50 µM | EC50 (HCV 2a Replicon): > 44 µM | EC50 (HBV Production): > 50 µM | day postinfection of HIV-1 breakthrough (HIV-1 IIIb [11]): no virus breakthrough was observed | EC50 (HIV-1 BaL): 0.001 ± 0.0003 µM

Cc1nnc(C(=O)NC(C)(C)c2nc(C(=O)NCc3ccc(F)cc3)c(O)c(=O)n2C)o1 [RAL, raltegravir]
% of Isolates (Fold-Change vs. WT) (2.5 to <5) ([12]; 47 patient-derived isolates): 4% | % of Isolates (Fold-Change vs. WT) (5 to <10) ([12]; 47 patient-derived isolates): 4% | % of Isolates (Fold-Change vs. WT) (≤2.5) ([12]; 47 patient-derived isolates): 2% | % of Isolates (Fold-Change vs. WT) (≥10) ([12]; 47 patient-derived isolates): 89% | Fold-Change vs. WT Mean ([12]; 47 patient-derived isolates): > 100 fold change | Fold-Change vs. WT Median ([12]; 47 patient-derived isolates): > 143 fold change | Susceptibility (Fold-change vs. WT) ([12]; isolate entry 1: L74M,T97A): 8.48 fold-change | Susceptibility (Fold-change vs. WT) ([12]; isolate entry 2: L68V,Y143C): 4.06 fold-change | Susceptibility (Fold-change vs. WT) ([12]; isolate entry 3: L68L/V,L74M,Y143R): > 143 fold-change | Susceptibility (Fold-change vs. WT) ([12]; isolate entry 4: T97A): 1.78 fold-change | Susceptibility (Fold-change vs. WT) ([12]; isolate entry 5: T97A,F121Y): 112 fold-change | Susceptibility (Fold-change vs. WT) ([12]; isolate entry 6: T97A,Y143R): > 143 fold-change | Susceptibility (Fold-change vs. WT) ([12]; isolate entry 7: F121Y): 12 fold-change | Susceptibility (Fold-change vs. WT) ([12]; isolate entry 8: L74M,N155H): 89 fold-change | Susceptibility (Fold-change vs. WT) ([12]; isolate entry 9: T97A,N155H): 53 fold-change | Susceptibility (Fold-change vs. WT) ([12]; isolate entry 10: T97A,Y143C): > 143 fold-change | Susceptibility (Fold-change vs. WT) ([12]; isolate entry 11: E92Q,E157E/Q): 4.8 fold-change | Susceptibility (Fold-change vs. WT) ([12]; isolate entry 12: E92Q): 18 fold-change | Susceptibility (Fold-change vs. WT) ([12]; isolate entry 13: N155H,E157E/Q): 19 fold-change | Susceptibility (Fold-change vs. WT) ([12]; isolate entry 14: E92Q): 6.7 fold-change | Susceptibility (Fold-change vs. WT) ([12]; isolate entry 15: Y143R): 22 fold-change | Susceptibility (Fold-change vs. WT) ([12]; isolate entry 16: Y143R): 16 fold-change | Susceptibility (Fold-change vs. WT) ([12]; isolate entry 17: N155H): 107 fold-change | Susceptibility (Fold-change vs. WT) ([12]; isolate entry 18: Y143C): 14 fold-change | Susceptibility (Fold-change vs. WT) ([12]; isolate entry 19: T97A,Y143C): > 143 fold-change | Susceptibility (Fold-change vs. WT) ([12]; isolate entry 20: Q148R,E138A): 43 fold-change | Susceptibility (Fold-change vs. WT) ([12]; isolate entry 21: N155H,G163R): 15 fold-change | Susceptibility (Fold-change vs. WT) ([12]; isolate entry 22: E92Q,N155H): > 143 fold-change | Susceptibility (Fold-change vs. WT) ([12]; isolate entry 23: E138K,Q148R): 54 fold-change | Susceptibility (Fold-change vs. WT) ([12]; isolate entry 24: G140S,Q148H): > 143 fold-change | Susceptibility (Fold-change vs. WT) ([12]; isolate entry 25: E92Q,N155H,G163R): > 143 fold-change | Susceptibility (Fold-change vs. WT) ([12]; isolate entry 26: G140A,Q148R): 88 fold-change | Susceptibility (Fold-change vs. WT) ([12]; isolate entry 27: G140S,Q148H): > 143 fold-change | Susceptibility (Fold-change vs. WT) ([12]; isolate entry 28: G140S,Q148H): > 143 fold-change | Susceptibility (Fold-change vs. WT) ([12]; isolate entry 29: G140S, Q148H): > 143 fold-change | Susceptibility (Fold-change vs. WT) ([12]; isolate entry 30: E138K,G140S,Q148H): > 143 fold-change | Susceptibility (Fold-change vs. WT) ([12]; isolate entry 31: G140S,Q148H): > 143 fold-change | Susceptibility (Fold-change vs. WT) ([12]; isolate entry 32: G140S,Q148H, G163K): > 143 fold-change | Susceptibility (Fold-change vs. WT) ([12]; isolate entry 33: G140S,Q148H): > 143 fold-change | Susceptibility (Fold-change vs. WT) ([12]; isolate entry 34: E138K,G140S,Q148H): > 143 fold-change | Susceptibility (Fold-change vs. WT) ([12]; isolate entry 35: E138K G140S Q148H): > 114 fold-change | Susceptibility (Fold-change vs. WT) ([12]; isolate entry 36: G140S,Q148H): > 143 fold-change | Susceptibility (Fold-change vs. WT) ([12]; isolate entry 37: G140S,Q148R): > 143 fold-change | Susceptibility (Fold-change vs. WT) ([12]; isolate entry 38: G140S,Q148H): > 143 fold-change | Susceptibility (Fold-change vs. WT) ([12]; isolate entry 39: G140S,Q148H): > 143 fold-change | Susceptibility (Fold-change vs. WT) ([12]; isolate entry 40: T97A,G140S,Q148H): > 143 fold-change | Susceptibility (Fold-change vs. WT) ([12]; isolate entry 41: E138K,G140C,Q148R): > 143 fold-change | Susceptibility (Fold-change vs. WT) ([12]; isolate entry 42: L74L/M,G140A,Q148R): > 143 fold-change | Susceptibility (Fold-change vs. WT) ([12]; isolate entry 43: G140S,Q148R): > 143 fold-change | Susceptibility (Fold-change vs. WT) ([12]; isolate entry 44: G140S,Q148H,E138A): > 143 fold-change | Susceptibility (Fold-change vs. WT) ([12]; isolate entry 45: T97A,G140S,Q148H): > 143 fold-change | Susceptibility (Fold-change vs. WT) ([12]; isolate entry 46: L74M,G140C,Q148R): > 143 fold-change | Susceptibility (Fold-change vs. WT) ([12]; isolate entry 47: E138K,G140A,Q148K): > 143 fold-change

— PMC5118987 (Antimicrobial Agents and Chemotherapy, 2016)
